Patent US20230390215A1 (AgoneX Biopharmaceuticals, Inc., priority 2021, published 2023)

Experiments:
[1] = test system: subject suffering from migraine headaches
Method: The patch is applied to the subject's skin for 4 hours. […] The size of the patch can vary from ¼ inch by ¼ inch to 1 inch by 1 inch depending on the desired dosage to be administered.
A subject suffering from migraine headaches is administered a 2″×2″ patch with a gel concentration of 30 μg/ml over a 24 hour period.
A subject suffering from migraine headaches is administered a 2″×2″ patch with a gel concentration of 2.7 μg/ml over a 24 hour period.

[2] = test system: subject suffering from Alzheimer's disease; conditions: Example 4: transdermal patch, 10 μg/mL, applied every day for two hours a day over a month
Method: A subject suffering from Alzheimer's disease is treated with a transdermal patch as described herein. […] The treatment regimen occurred over the course of a month.

Q: Which results are given for `Cl.Cl.NCCc1c[nH]cn1` [histamine dihydrochloride]?
A: migraine events ([1]; Example 3: transdermal patch comprising 30 μg/mL, applied to skin for 4 hours during a migraine event): treated or reduced; migraine headaches (intensity and duration) ([1]; Example 6: 2″×2″ patch, gel concentration 2.7 μg/ml, 24 hour period): reduced in both intensity and duration; Alzheimer's disease symptoms [2]: treated or reduced
